Test results from patent publication US20260153494A1 (AGRICUL TURAL UNIVERSITY OF ATHENS, priority 2023, published 2026).
Positions count from the first letter of the chain named.

Assays:
[1] = tested on: FGGsh155 (phi class glutathione S-transferase GSTF mutant sh155, derived by DNA shuffling, with N-terminal FGG tag, SEQ ID NO: 2); assay type: biochemical
Protocol: (§1) GST activity assays were carried by using the 1-chloro-2,4-dinitrobenzene (CDNB)/glutathione (GSH) substrate system as described previously (Axarli et al., 2017; Georgakis et al., 2020). Determination of enzyme activity was conducted using 1 mM CDNB and 2.5 mM GSH final concentration in 0.1 M KH2PO4, PH 6.5 and 37° C. Kinetic analysis of the potential supramolecular protein complexes was performed as previously described (Axarli et al., 2016, Georgakis et al., 2020) five days after addition of CB[8] to the enzyme solution in 1:1 stoichiometry. Protein precipitates were removed by centrifugation at 10,000 rpm for 10 min prior to the analysis. The steady state data were processed using GraphPad Prism version 7 (GraphPad Prism Software, Inc.). Turnover numbers were evaluated for one active site per subunit of enzyme. Specific activity (SA) was estimated in micromoles per minute per milligram of protein (μmol min-1 mg-1). Determination of protein concentration was carried using the Bradford assay with bovine serum albumin as standard (Bradford, 1976).
(§2) The kinetic parameters of FGGsh101 and FGGsh155 were analyzed both in absence of CB[8] and five days after the addition of the macrocyclic host in 1:1 ratio. […] (see Example 3)

[2] = tested on: FGGsh101 (phi class glutathione S-transferase GSTF mutant sh101, derived by DNA shuffling, with N-terminal FGG tag, SEQ ID NO: 1); assay type: biochemical
Protocol: as §1, §2

[3] = tested on: FGGsh101:CB[8] (FGG-tagged phi class glutathione S-transferase GSTF mutant sh101, SEQ ID NO: 1, with cucurbit[8]uril 1:1); assay type: biochemical
Protocol: as §1, §2

[4] = tested on: FGGsh155:CB[8] hexamer (FGG-tagged phi class glutathione S-transferase GSTF mutant sh155, SEQ ID NO: 2, with cucurbit[8]uril 1:1); assay type: biochemical
Protocol: as §1, §2

[5] = tested on: Immobilized FGGsh155:CB[8] hexamer (GSTF mutant sh155, FGG-tagged, SEQ ID NO: 2, with cucurbit[8]uril 1:1, on glutaraldehyde-crosslinked chitosan); assay type: biochemical
Protocol: Initially, 2%, 3% and 4% (w/v) medium molecular weight chitosan (molecular weight of 190 to 310 kDa) was dissolved by continuous stirring in 2% (v/v) acetic acid. The formed chitosan gels were stored at 4° C. until the following day (12 to 24 hours) in order to remove any trapped air. For the immobilisation, 180 mg of chitosan gel were deposited by a syringe at the bottom of a cuvette with 4 mL capacity. Then 50 μL of different concentrations of GA solution [0.4%, 0.5%, 0.6%, 0.7%, and 1% (v/v)] were added and the mixture was lightly stirred with a pipette tip. The carrier mixture was left for an hour so that the reaction of GA binding to the amino groups of the carrier was accomplished. GA was diluted in 20 mM KH2PO4, PH 7.0. Afterwards, the carrier was washed thrice with 2 mL 20 mM KH2PO4, PH 7, in order to remove any unbound GA molecules. The immobilization of FGGsh155:CB[8] was performed five days after the addition of the CB[8] macrocyclic agent at stoichiometry of 1:1, for uniformity of the experiments. Thus, 600 μL of the enzyme solution with 0.7-0.8 mg/mL concentration were added to the activated chitosan medium. The enzyme was incubated with the carrier at 25° C. overnight with stirring at 50-80 rpm. The following day, the volume of the enzyme solution that wasn't absorbed by the carrier was removed and the carrier was incubated with 600 μL of 2 mg/mL NaBH4 solution for 30 min. This step was conducted in order to stabilize the Schiff's bases that form due to the reaction of GA with the enzyme amino groups (Barbosa et al., 2014). Finally, three washes were performed with 20 mM KH2PO4, PH 7, for the removal of any unbound enzyme. Protein binding efficiency to the carrier (%) and retention of enzyme activity (%) were defined as: […]
Determination of the enzyme activity for the immobilised enzyme complex FGGsh155:CB[8] was performed using the CDNB/GSH substrate system with 20 mM KH2PO4, PH 7, as a reaction solution at 37° C., as has been previously described (Georgakis et al., 2020a; Axarli et al., 2017; Cho et al., 2005). The rate assay was recorded for 300 s at 340 nm.
Kinetic analysis for GSH was performed using standard CDNB concentration (1 mM) and varying GSH concentrations. Correspondingly, standard concentration of GSH substrate (2.5 mM) and varying concentrations of CDNB were utilised in the kinetic analysis for CDNB.
The kinetic parameters of the immobilized FGGsh155:CB[8] were calculated using the CDNB/GSH substrate system in 20 mM KH2PO4, PH 7.0, at 37° C. (FIG. 20) depicts the dependence of the enzyme's reaction rate on the substrate concentration. […] Respectively the kinetic analysis for GSH was carried with standard CDNB concentration (1 mM) and different GSH concentrations. […] The reduction in kcat is usually expected after immobilization (Neira & Herr, 2017).

[6] = Thermal stability (Tm) by differential scanning fluorimetry; assay type: physicochemical; conditions: for second distinct melting point Tm2 / increase in Tm1: after addition of CB[8]; for increase in Tm1: versus Tm0, especially 1:1 stoichiometry
Protocol: The thermostability of FGG-GSTFs, FGGsh101 and FGGsh155 was assessed by differential scanning fluorimetry (DSF) in the presence of the macrocyclic compound CB[8]. CB[8] was added in stoichiometry of 1:1 and 2:1 enzyme to host concentration. The reaction was performed in 50 mM KH2PO4 solution, pH 7.14, using either 15 μM enzyme and 15 μM CB[8] (1:1) or 15 μM enzyme and 7.5 μM CB[8] (2:1). A “control” reaction for each ratio was also measured, where only CB[8]'s solvent of was added to the enzyme. Differential scanning fluorimetry was performed in 20 mM KH2PO4 buffer, pH 7, with 4 μg of protein sample, according to published methods (Huynh & Partch, 2015). Thermal shift assays we carried using a Real-time PCR StepOne™ instrument (Applied Biosystems, USA) and the SYPRO Orange protein dye at a temperature range between 15° C. and 99° C. with a ramping rate of 1%. Temperature of protein denaturation midpoint (Tm) was estimated by the first derivative of the normalized fluorescence data.

[7] = Enzyme stability upon storage at 4° C. (retention of activity); assay type: physicochemical; conditions: first twenty days
Protocol: Enzymatic stability was determined as the retention of enzyme activity overtime upon storage at 4° C. for the FGGsh155:CB[8] before and after immobilization, as well as the unmodified form of FGGsh155. Monitoring of the enzyme inactivation was determined using the CDNB/GSH substrate system.

[8] = Steady-state kinetic analysis of FGG-GSTFs, CDNB/GSH substrate system; assay type: biochemical; conditions: for catalytic constant: enzyme samples with CB[8] in 1:1 stoichiometry; for kcat: free enzyme
Protocol: as §1
The kinetic parameters of FGGsh101 and FGGsh155 were analyzed both in absence of CB[8] and five days after the addition of the macrocyclic host in 1:1 ratio. This was determined according to the fluorescence intensity monitoring experiments, where the reduction of fluorescence emission appeared to reach a plateau after 4-5 days. (see Example 3)

[9] = CDNB/GSH substrate system, pH 6.5, 37° C., one active site per subunit

Molecule: N[C@@H](CCC(=O)N[C@@H](CS)C(=O)NCC(=O)O)C(=O)O [GSH, glutathione]
- kcat/Km GSH ([1]; pH 6.5): 113.78 min⁻¹ mM⁻¹
- Km ([1]; pH 6.5, read-out: Km GSH): 1.48 ± 0.03 mM
- kcat/Km GSH ([2]; pH 6.5): 118.68 min⁻¹ mM⁻¹
- Km ([2]; pH 6.5, read-out: Km GSH): 1.36 ± 0.02 mM
- kcat/Km GSH ([3]; pH 6.5): 95.67 min⁻¹ mM⁻¹
- Km ([3]; pH 6.5, read-out: Km GSH): 1.41 ± 0.05 mM
- kcat/Km GSH ([4]; pH 6.5): 84.62 min⁻¹ mM⁻¹
- Km ([4]; pH 6.5, read-out: Km GSH): 1.43 ± 0.03 mM
- kcat/Km GSH ([5]; 20 mM KH2PO4, pH 7.0, 37° C.): 1.01 min⁻¹ mM⁻¹
- Km ([5]; CDNB 1 mM, 20 mM KH2PO4, pH 7.0, 37° C., read-out: Km GSH): 1.26 ± 0.08 mM

Molecule: O=[N+]([O-])c1ccc(Cl)c([N+](=O)[O-])c1 [CDNB, 1-chloro-2,4-dinitrobenzene]
- nH (Hill coefficient) ([1]; CDNB variable, pH 6.5, 37° C.): 1.01 ± 0.03
- kcat [1, 9]: 168.4 ± 2.72 min⁻¹
- kcat/S0.5 CDNB ([1]; pH 6.5, 37° C.): 218.7 min⁻¹ mM⁻¹
- nH (Hill coefficient) ([2]; CDNB variable, pH 6.5, 37° C.): 1.17 ± 0.03
- kcat [2, 9]: 159.4 ± 1.21 min⁻¹
- kcat/S0.5 CDNB ([2]; pH 6.5, 37° C.): 397.51 min⁻¹ mM⁻¹
- nH (Hill coefficient) ([3]; CDNB variable, five days after CB[8] addition 1:1, pH 6.5, 37° C.): 1.1 ± 0.06
- kcat ([3]; CDNB/GSH substrate system, five days after CB[8] addition 1:1, pH 6.5, 37° C.): 134.9 ± 3.28 min⁻¹
- kcat/S0.5 CDNB ([3]; five days after CB[8] addition 1:1, pH 6.5, 37° C.): 240.89 min⁻¹ mM⁻¹
- nH (Hill coefficient) ([4]; free enzyme, CDNB variable, five days after CB[8] addition 1:1, pH 6.5, 37° C.): 1.01 ± 0.02
- kcat ([4]; free enzyme, CDNB/GSH substrate system, five days after CB[8] addition 1:1, pH 6.5, 37° C.): 121 ± 1.14 min⁻¹
- S0.5 CDNB ([4]; free enzyme, GSH at fixed concentration, five days after CB[8] addition 1:1, pH 6.5, 37° C.): 0.81 ± 0.05 mM
- kcat/S0.5 CDNB ([4]; free enzyme, five days after CB[8] addition 1:1, pH 6.5, 37° C.): 149.38 min⁻¹ mM⁻¹
- kcat/S0.5 CDNB ([5]; 20 mM KH2PO4, pH 7.0, 37° C.): 1.14 min⁻¹ mM⁻¹
- nH (Hill coefficient) ([5]; CDNB variable, GSH 2.5 mM, pH 7.0, 37° C.): 1.47 ± 0.12
- kcat ([5]; CDNB/GSH substrate system, 20 mM KH2PO4, pH 7.0, 37° C.): 1.28 ± 0.12 min⁻¹

B1: sh101: phi class cytosolic glutathione S-transferase mutant from DNA shuffling, without FGG tag (protein)
chain: MFGGAPVKVFGPAMSTNVARVTLCLEEVGAEYEVVNIDFNTMEHKSPEHLARNPFGQIPAFQDGDLLLWESRAISKYVLRKYKTDEVDLLREGNLKEAAMVDVWTEYDAHTYNPALSPIVYECLINPLMRGLPTNQTVVDESLEKLKKVLEVYEARLSQHKYLAGDFVSFADLNHFPYTFYFMATPHAALFDSYPHVKAWWDRLMARPAVKKIAATMVPPKA
- effect of CB[8] addition on Tm of enzyme forms that weren't FGG-tagged ([6]; 1:1 and 2:1, almost ten days): did not induce the appearance of an additional Tm value

B2: FGGsh155: phi class GST mutant sh155 (SEQ ID NO: 2) with N-terminal phenylalanine-glycine-glycine tag; dimer (protein)
chain: B1 chain with N36D, N40K, T41A, A51V, W69F, S75A
modifications: N-terminal FGG tag; dimer
- retained activity [7]: approximately 50%
- catalytic constant [8]: 121 ± 1.14 min⁻¹
- kcat [8]: 168.4 ± 2.72 min⁻¹
- second distinct melting point Tm2 [6]: ≈ 85 °C
- increase in Tm1 [6]: up to 3.5 °C

B3: FGGsh101: phi class GST mutant sh101 (SEQ ID NO: 1) with N-terminal phenylalanine-glycine-glycine tag; dimer (protein)
chain: B1 chain
modifications: N-terminal FGG tag; dimer
- catalytic constant [8]: 134.9 ± 3.28 min⁻¹
- kcat [8]: 159.4 ± 1.21 min⁻¹
- second distinct melting point Tm2 [6]: ≈ 85 °C
- increase in Tm1 [6]: 1.5-2 °C
